Assays:
[1] = test system: TNBS colitis; assay: Macroscopic injury score of distal colon in TNBS colitis, rectal (enema) treatment; format: in vivo, Male Sprague Dawley rats; conditions: 11 days after TNBS, 8 days of daily rectal treatment, mean±SEM, scale of Table 1, TNBS alone 5.9±0.6
Description: (§1) Male Sprague Dawley rats weighing 200-250 grams were housed in the animal facility in cages containing contact bedding. Rats were deprived of food but not water for 24 hrs prior to the induction of colitis. Institutional approval for experimental protocols was provided by the research and animal care committees of the Research Services at the Oklahoma City Veterans Administration Medical Center.
(§2) Fasted animals were lightly anesthetized with isoflurane and then subjected to enema administration of TNBS and subsequently study drugs. The experimental protocol is similar to that previously described (20). The tip of polyethylene catheter was advanced transanally 8 cm to the distal colon and a single dose of TNBS (Sigma, St. Louis, Mo.), was instilled intraluminally (15 mg of TNBS dissolved in a 0.6 ml volume of 50% ethanol) to induce colitis. Following the administration of TNBS the animals were maintained in a head-down position for approximately 60 seconds to prevent leakage of the infusate.
Three days after TNBS dosing rats were randomly assigned to receive one of the following treatments by enema in a manner similar to that used for TNBS administration. […]
Inflammation was present if the mucosa was erythematous. […] Once macroscopic damage was assessed full thickness colonic tissue samples were taken from inflamed areas and processed for histology.

[2] = test system: cytokine gene expression (IL-1A, IL-1B, 1L-04, IL-6 and TNFα); conditions: similarly designed studies; cited from earlier work
[3] = test system: TNBS colitis; assay: Microscopic (histological) injury of distal colon in TNBS colitis, rectal (enema) treatment; format: in vivo, Male Sprague Dawley rats
Description: as §1, §2
Three days after TNBS dosing rats were randomly assigned to receive one of the following treatments by enema in a manner similar to that used for TNBS administration. The TNBS treated animals received one of the following therapies 5-ASA (100 mg/kg) alone or 5-ASA in combination with one of the following: vitamin C (100 mg/kg), phenyl butylnitrone (PBN; 30 mg/kg) and vitamin E (a tocopherol; 50 mg/kg solubilized in DMSO). The doses of selected antioxidants were derived from the literature in which these agents had been used in experimental models of disease or IBD (19, 22, 23). Comparator groups included TNBS dosed rats that received 8 doses of rectal saline and saline treated controls. Rats were treated for 8 days and then sacrificed.
Histological assessment was used to measure colonic injury. Colonic tissue samples taken from the distal colon were immersed in 10% phosphate buffered formalin and subsequently embedded in paraffin. Sections of 3 micron thickness were stained with hematoxylin and eosin. The slides were then evaluated by a pathologist for epithelial damage, architectural changes, polymorphonuclear leukocyte (PMN) infiltration, mononuclear cell infiltration, and ulceration. The microscopic features of colitis were graded on a 0-3 scale with 0 being normal and 3 representing severe or most intense abnormality. In addition to scoring individual features of colitis, an aggregate score of colitis for each rat was tabulated by adding together individual parameter scores, thus, providing a global assessment of colitis.

[4] = test system: MPO activity; assay: Colonic inflammation by MPO assay in distal colon tissue, TNBS colitis; format: in vivo, Male Sprague Dawley rats; conditions: 11 days after TNBS, 8 days of treatment; mean±SEM; TNBS colitis 703+130
Description: Fasted animals were lightly anesthetized with isoflurane and then subjected to enema administration of TNBS and subsequently study drugs. The experimental protocol is similar to that previously described (20). The tip of polyethylene catheter was advanced […] 8 cm to the distal colon and a single dose of TNBS (Sigma, St. […] Following the administration of TNBS the animals were maintained in a head-down position for approximately 60 seconds to prevent leakage of the infusate. Three days after TNBS dosing rats were randomly assigned to receive one of the following treatments by enema in a manner similar to that used for TNBS administration. The TNBS treated animals received one of the following therapies 5-ASA (100 mg/kg) alone or 5-ASA in combination with one of the following: vitamin C (100 mg/kg), phenyl butylnitrone (PBN; 30 mg/kg) and vitamin E (a tocopherol; 50 mg/kg solubilized in DMSO). The doses of selected antioxidants were derived from the literature in which these agents had been used in experimental models of disease or IBD (19, 22, 23). Comparator groups included TNBS dosed rats that received 8 doses of rectal saline and saline treated controls. Rats were treated for 8 days and then sacrificed. MPO activity was measured in colonic tissue samples by colorimetric assay. […] The absorbance changes were read at 450 nm and recorded. Results are expressed as nanograms per gram of tissue. […]

[5] = distal colonic specimen, 8 days of topical treatment begun 3 days after TNBS

Nc1ccc(O)c(C(=O)O)c1 [5-ASA, 5-aminosalicylic acid]
macroscopic injury score [1]: 3.8±0.4
cytokine gene expression elicited by TNBS [2]: did not achieve this degree of statistical distinction
global microscopic injury score ([3]; distal colon, 11 days after TNBS, 8 days of daily rectal treatment, mean±SEM, sum of indices graded 0-3, TNBS alone 13.3±0.5): 9.1±1.0
inflammation in representative photomicrograph [3, 5]: mild inflammation in the submucosa
mucosal ulceration in representative photomicrograph [3, 5]: an area of mucosal ulceration
reduction of global microscopic colitis vs TNBS ([3]; printed as reduction/decrease): 31%
MPO activity in the distal colon [4]: 354±81 ng/gm

CC(=O)N[C@@H](CS)C(=O)O [NAC, N-acetylcysteine]
cytokine gene expression elicited by TNBS [2]: did not achieve this degree of statistical distinction

From patent US20110071117A1, “COMBINATIONS OF ANTIOXIDANTS AND ANTI-INFLAMMATORY DRUGS IN THE TREATMENT OF INFLAMMATORY BOWEL DISEASE” (The Board of Regents of the University of Oklahoma, priority 2008, published 2011)
